{"source": "paper PMC12154787", "about": "“Comprehensive Evaluation of the Effects of Hot Air Drying Temperature on the Chemical Composition, Flavor Characteristics and Biological Activity of Houttuynia cordata Thunb” (Foods, 2025)", "key": {"[1]": {"assay": "Metabolite identification in rat serum by UPLC-LTQ-Orbitrap-MS2 after HCT extract; for all read-outs here: key: +: detected; —: undetected", "assay_type": "in vivo, SD rats", "conditions": "for Metabolite detected in Serum, FDH: FDH group (600 mg/kg BW freeze-dried HCT extract); for Metabolite detected in Serum, 50H: 50H group (600 mg/kg BW 50 °C hot-air dried HCT extract)", "method": "The chromatographic separation was performed on an ACQUITY UPLC BEH C18 column (2.1 × 100 mm, 1.7 μm) maintained at 25 °C. […] The mobile phase flow rate was maintained at 300 μL/min with a 2 μL injection volume.\nMass spectrometric detection was carried out using an LTQ-Orbitrap system equipped with a HESI-II source operating in both positive and negative ionization modes. Full scan MS data were acquired over m/z 50–2000 with mass resolution set to 30,000 (at m/z 400). For structural elucidation, data-dependent MS/MS scans were triggered using a normalized collision energy of 45 eV in the CID cell. The diode array detector was simultaneously monitored at 280 nm and 320 nm. All instrumental operations and data acquisition were controlled by Xcalibur v2.0 software (Thermo Scientific).\nThe animal study protocol was approved by the Animal Ethics Committee of Jiangxi University of Chinese Medicine (Approval No. TEMPOR20230112). A total of 24 female SD rats (200 ± 20 g) were obtained from the Laboratory Animal Center of Jiangxi University of Chinese Medicine (Nanchang, China). […] After one week of acclimatization with ad libitum access to sterilized food and water, the rats were randomly divided into three groups (n = 8), including a negative control, FDH: freeze-dried HCT extract (treated with 600 mg/kg BW freeze-dried HCT extracts), 50H: 50 °C hot-air dried HCT extract (treated with 600 mg/kg BW 50 °C hot-air dried HCT extracts). Blood collection and the pretreatment of serum were conducted following our previously published protocols. The identification and quantification of metabolites in rat samples were performed using analytical methodologies consistent with those employed in our previous investigations."}, "[2]": {"assay": "Pharmacokinetics of HCT constituents in rat plasma after a single dose of HCT extract", "assay_type": "in vivo, SD rats", "method": "The quantification of target compounds was conducted using an LC-TQ5200 triple quadrupole mass spectrometer (Hexin Instruments, Guangzhou, China) coupled with a HILIC column (100 × 2.1 mm, 1.8 μm; ANPEL, Shanghai, China). Chromatographic separation was achieved under isocratic conditions with a mobile phase comprising (A) 0.1% formic acid in water and (B) acetonitrile (50:50, v/v) for 4 min at a flow rate of 0.3 mL/min. The column temperature was maintained at 30 °C with a 10 μL injection volume.\nMass spectrometric detection was performed in positive electrospray ionization (ESI) mode with multiple reaction monitoring (MRM). The optimized ion source parameters were as follows: drying gas temperature, 500 °C; spray voltage, 5500 V; nebulizer gas pressure, 70 psi (482.3 kPa); drying gas flow, 8 L/min; and curtain gas flow, 3 L/min. The collision cell operated with 0.4 mL/min collision gas flow under the following voltage settings: curtain plate 800 V, orifice 70 V, detector 2300 V, with cell entrance and exit voltages of 30 V and 1 V, respectively. All analyses were performed with three replicates (n = 3).\nThe animal study protocol was approved by the Animal Ethics Committee of Jiangxi University of Chinese Medicine (Approval No. TEMPOR20230112). A total of 24 female SD rats (200 ± 20 g) were obtained from the Laboratory Animal Center of Jiangxi University of Chinese Medicine (Nanchang, China). Prior to experimentation, the rats were acclimated for 7 days in an air-conditioned room maintained at 24 ± 1 °C with a 12 h light/dark cycle. After one week of acclimatization with ad libitum access to sterilized food and water, the rats were randomly divided into three groups (n = 8), including a negative control, FDH: freeze-dried HCT extract (treated with 600 mg/kg BW freeze-dried HCT extracts), 50H: 50 °C hot-air dried HCT extract (treated with 600 mg/kg BW 50 °C hot-air dried HCT extracts). Blood collection and the pretreatment of serum were conducted following our previously published protocols. The identification and quantification of metabolites in rat samples were performed using analytical methodologies consistent with those employed in our previous investigations."}, "[3]": {"conditions": "female, SD, 50H: 600 mg/kg BW 50 °C hot-air dried HCT extract"}, "[4]": {"conditions": "female, SD, rat, plasma, 600 mg/kg, 50H: 600 mg/kg BW 50 °C hot-air dried HCT extract"}, "[5]": {"conditions": "female, SD, rat, plasma, 600 mg/kg, FDH: 600 mg/kg BW freeze-dried HCT extract"}, "[6]": {"conditions": "50H: 600 mg/kg BW 50 °C hot-air dried HCT extract"}}}
{"smiles": "O=c1cc(-c2ccc(O)cc2)oc2cc(O)cc(O)c12", "note": "[M23, apigenin]", "values": [{"measurement": "Metabolite detected in Serum, FDH", "setting": "[1]", "value": "+"}]}
{"smiles": "O=C(O)c1ccc(O)c(O)c1", "note": "[M2, protocatechuic acid]", "values": [{"measurement": "Metabolite detected in Serum, 50H", "setting": "[1]", "value": "+"}, {"measurement": "Metabolite detected in Serum, FDH", "setting": "[1]", "value": "+"}]}
{"smiles": "O=C(/C=C/c1ccc(O)c(O)c1)O[C@@H]1C[C@](O)(C(=O)O)C[C@@H](O)[C@H]1O", "note": "[Chlorogenic acid, chlorogenic acid]", "values": [{"measurement": "Tmax", "setting": "[2]; [3]", "value": 1.5, "unit": "h"}, {"measurement": "AUC", "setting": "[2]; [4]", "value": "0.222 ± 0.0225", "unit": "µM·h"}, {"measurement": "Cmax", "setting": "[2]; [4]", "value": "84.4 ± 2.26", "unit": "nM"}, {"measurement": "half-life", "setting": "[2]; [4]", "value": "2.05 ± 0.62", "unit": "h"}, {"measurement": "AUC", "setting": "[2]; [5]", "value": "0.231 ± 0.00787", "unit": "µM·h"}, {"measurement": "Cmax", "setting": "[2]; [5]", "value": "104 ± 9.47", "unit": "nM"}, {"measurement": "half-life", "setting": "[2]; [5]", "value": "2.25 ± 0.7", "unit": "h"}]}
{"smiles": "O=C(O)CCc1ccc(O)c(O)c1", "note": "[M10, dihydrocaffeic acid]", "values": [{"measurement": "Metabolite detected in Serum, 50H", "setting": "[1]", "value": "+"}, {"measurement": "Metabolite detected in Serum, FDH", "setting": "[1]", "value": "+"}]}
{"smiles": "O=C(O)[C@H]1O[C@@H](Oc2cc3oc(-c4ccc(O)cc4)cc(=O)c3c(O)c2O)[C@H](O)[C@@H](O)[C@@H]1O", "note": "[Scutellarin, scutellarin]", "values": [{"measurement": "Tmax", "setting": "[2]; female, SD, FDH: 600 mg/kg BW freeze-dried HCT extract", "value": 1.5, "unit": "h"}, {"measurement": "AUC", "setting": "[2]; [4]", "value": "0.121 ± 0.00462", "unit": "µM·h"}, {"measurement": "Cmax", "setting": "[2]; [4]", "value": "22 ± 4.15", "unit": "nM"}, {"measurement": "half-life", "setting": "[2]; [4]", "value": "9.26 ± 4.35", "unit": "h"}, {"measurement": "AUC", "setting": "[2]; [5]", "value": "0.116 ± 0.00702", "unit": "µM·h"}, {"measurement": "Cmax", "setting": "[2]; [5]", "value": "23.9 ± 3.17", "unit": "nM"}, {"measurement": "half-life", "setting": "[2]; [5]", "value": "6.91 ± 0.65", "unit": "h"}]}
{"smiles": "CCCCCCCCC=CCCCCCCCC(=O)O", "note": "[M37, 9-octadecenoic acid]", "values": [{"measurement": "Metabolite detected in Serum, 50H", "setting": "[1]", "value": "+"}, {"measurement": "Metabolite detected in Serum, FDH", "setting": "[1]", "value": "+"}]}
{"smiles": "C[C@@H]1O[C@@H](OC[C@H]2O[C@@H](Oc3c(-c4ccc(O)c(O)c4)oc4cc(O)cc(O)c4c3=O)[C@H](O)[C@@H](O)[C@@H]2O)[C@H](O)[C@H](O)[C@H]1O", "note": "[Rutin, rutin]", "values": [{"measurement": "Tmax", "setting": "[2]; [3]", "value": 1, "unit": "h"}, {"measurement": "AUC", "setting": "[2]; [4]", "value": "0.277 ± 0.0123", "unit": "µM·h"}, {"measurement": "Cmax", "setting": "[2]; [4]", "value": "125 ± 4.95", "unit": "nM"}, {"measurement": "half-life", "setting": "[2]; [4]", "value": "2.04 ± 0.5", "unit": "h"}, {"measurement": "AUC", "setting": "[2]; [5]", "value": "0.328 ± 0.00568", "unit": "µM·h"}, {"measurement": "Cmax", "setting": "[2]; [5]", "value": "136 ± 16", "unit": "nM"}, {"measurement": "half-life", "setting": "[2]; [5]", "value": "2.61 ± 1.23", "unit": "h"}]}
{"smiles": "CC(O)CC(=O)O", "note": "(stereo not shown) [M13, 3-hydroxybutyrate]", "values": [{"measurement": "Metabolite detected in Serum, 50H", "setting": "[1]", "value": "+"}]}
{"smiles": "Nc1ccc(CCC(=O)O)c(C(=O)O)c1", "note": "[M14]", "values": [{"measurement": "Metabolite detected in Serum, 50H", "setting": "[1]", "value": "+"}, {"measurement": "Metabolite detected in Serum, FDH", "setting": "[1]", "value": "+"}]}
{"smiles": "COc1c(O)cc2oc(-c3ccc(O)cc3)cc(=O)c2c1O", "note": "[M18, hispidulin]", "values": [{"measurement": "Metabolite detected in Serum, FDH", "setting": "[1]", "value": "+"}]}
{"smiles": "O=c1c(O)c(-c2ccc(O)c(O)c2)oc2cc(O)cc(O)c12", "note": "[Quercetin, quercetin]", "values": [{"measurement": "Cmax", "setting": "[2]; [6]", "value": "378 ± 21.4", "unit": "nM"}, {"measurement": "T1/2", "setting": "[2]; [6]", "value": "7.28 ± 4.47", "unit": "h"}, {"measurement": "T1/2", "setting": "[2]; FDH: 600 mg/kg BW freeze-dried HCT extract", "value": "4.46 ± 0.14", "unit": "h"}, {"measurement": "Tmax", "setting": "[2]; [3]", "value": 2, "unit": "h"}, {"measurement": "AUC", "setting": "[2]; [4]", "value": "2.32 ± 0.0574", "unit": "µM·h"}, {"measurement": "AUC", "setting": "[2]; [5]", "value": "2.551 ± 0.017", "unit": "µM·h"}, {"measurement": "Cmax", "setting": "[2]; [5]", "value": "410 ± 12", "unit": "nM"}]}
{"smiles": "COc1cc(C(=O)O)ccc1OC(C)=O", "note": "[M3, 4-acetyloxy-3-methoxybenzoic acid]", "values": [{"measurement": "Metabolite detected in Serum, 50H", "setting": "[1]", "value": "+"}, {"measurement": "Metabolite detected in Serum, FDH", "setting": "[1]", "value": "+"}]}
{"smiles": "CCCCCCCCCC(=O)CC(=O)O", "note": "[M27, decanoyl acetic acid]", "values": [{"measurement": "Metabolite detected in Serum, 50H", "setting": "[1]", "value": "+"}, {"measurement": "Metabolite detected in Serum, FDH", "setting": "[1]", "value": "+"}]}
